The target of assay [1] is T1, β5 subunit of the human constitutive proteasome (CPS) (Homo sapiens, UniProt P28074).
T1 construct: purchased Boston Biochem E-360
Put plainly: β5 inhibition assay, human constitutive proteasome (Suc-LLVY-AMC). Format: biochemical. The settings on record: IC50 class, Suc-LLVY-AMC substrate. On the procedure: The enzymatic activity of the β5 subunit of the human constitutive proteasome (CPS) is analyzed. In another assay, which differs from the assay of the human constitutive proteasome only in using the human immunoproteasome (IPS) the enzymatic activity of the β5 subunit of the human immunoproteasome (IPS) is analyzed. […] Inhibition is indicated as IC50 [nM] (“-”=not measured).

Assay [2] has as its target T2, β5 subunit of the human immunoproteasome (IPS) (Homo sapiens, UniProt P28062).
T2 construct: purchased Boston Biochem E-370
Put plainly: β5 inhibition assay, human immunoproteasome (Suc-LLVY-AMC). Format: biochemical. The note with it: IC50 class, Suc-LLVY-AMC substrate. On the procedure: The enzymatic activity of the β5 subunit of the human constitutive proteasome (CPS) is analyzed. In another assay, which differs from the assay of the human constitutive proteasome only in using the human immunoproteasome (IPS) the enzymatic activity of the β5 subunit of the human immunoproteasome (IPS) is analyzed. Incubation of the enzyme with its fluorogenic substrate Suc-LLVY-AMC leads to liberation of the fluorescent dye AMC which can be measured with a suitable plate reader. • 100 mM HEPES pH7.5 • 50 mM NaCl • 0.02% SDS • 1 mM DTT (add fresh) • Victor X5 (Perkin Elmer) • Label: Umbeliferone (0.1s) • Excitation wavelength: 355 nm • Emission wavelength: 460 nm • 4 μl human cPS or IPS enzyme in assay buffer (final assay concentration 1 nM) or 4 μl assay buffer for negative controls • Compound addition via acoustic dispenser (Echo 520, Labcyte) • Mix and incubate @ RT for 10 min • 4 μl Suc-LLVY-AMC substrate (final assay concentration 22.6 μM) • Mix and incubate @ RT for 4 h (dark) • Stop reaction with 4 μl Bortezomib (final assay concentration 1 μM) • 15 min @ RT • Measure (Excitation 355 nm; Emission 460 nm)

A further assay deals with HT-29 cells. In words: CellTiter-Glo luminescent cell viability assay with HT-29 cells (72h incubation). Format: cell-based, human. The settings on record: Homo sapiens, HT-29, HT29 cells, read-out: CTG HT29. The method, then: Cell Titer Glo Viability Assay with HT-29 Cells (72h Incubation) The CellTiter-Glo Luminescent Cell Viability Assay (Promega) is a homogeneous method of determining the number of viable cells in culture. It is based on quantification of ATP, indicating the presence of metabolically active cells. On day 1 400 HT-29 cells per well are seeded in white 384well plates (Greiner, #781080) in 25 μl cell culture medium (DMEM (PAN-Biotech #P04-03590)+10% FCS+glutamine). After incubation for 24 h at 37° C./5% CO2 compounds or DMSO are added at different concentrations by Echo Liquid Handling Technology. Cells are further incubated in humidified chambers for 72 h at 37° C. and 5% CO2. Cells treated with the compound vehicle DMSO are used as positive controls and cells treated with 10 μM Staurosporine serve as negative controls. At day 5-72h after compound addition—the CellTiter Glo Reagent is prepared according to the instructions of the kit (Promega Inc.): Reagent is mixed 1:1 with cell culture medium. Thereon, mixture and assay plates are equilibrated at room temperature for 20 min. Equal volumes of the reagent-medium-mixture is added to the volume of culture medium present in each well. The plates are mixed at […] for 2 minutes on an orbital shaker. The microplates are then incubated at room temperature for 10 minutes for stabilization of the luminescent signal. Following incubation the luminescence is recorded on a Victor microplate reader (Perkin Elmer) using a 200 ms integration time. The data is then analyzed with Excel using the XLFIT Plugin (dose response Fit 205) for IC50-determination. As quality control the Z′-factor is calculated from 16 positive and negative control values. […] Inhibition is indicated as IC50 [nM] (“-”=not measured).

In the case of `Cc1ccc2cc1CNC(=O)[C@H](CCc1ccccc1)NC(=O)[C@@H](NC(=O)C1CCc3cc(N)ccc31)CC(=O)N1CCCC(CCO2)C1` (stereo partly drawn) [Compound 317, 5-amino-N-((9S,12S)-5^4-methyl-8,11,14-trioxo-9-phenethyl-4-oxa-7,10-diaza-1(3,1)-piperidina-5(1,3)-benzenacyclotetradecaphane-12-yl)-2,3-dihydro-1H-indene-1-carboxamide], the IC50 (in assay [1]; in assay [2]; in the assay with HT-29 cells) was less than 100 nM in each case.
With `Cc1ccc2cc1CNC(=O)[C@H](CCc1ccccc1)NC(=O)[C@@H](NC(=O)OCc1ccccc1)CC(=O)N1CC(CCO2)Cc2ccccc21` (stereo partly drawn) [Compound 313, benzyl ((9S, 12S)-5^4-methyl-8,11,14-trioxo-9-phenethyl-11,12,13,14-tetrahydro-4-oxa-7,10-diaza-1(3,1)-quinolina-5(1,3)-benzenacyclotetradecaphane-12-yl)carbamate], the figures for the IC50 (in assay [1]; in assay [2]; in the assay with HT-29 cells) were greater than 5000 nM, 500 to 1000 nM and 100 to 500 nM, respectively.
For `Cc1ccc2cc1CNC(=O)[C@H](CCc1ccccc1)NC(=O)[C@@H](NC(=O)c1cccc3cc(N)ncc13)CC(=O)N1CCCC(CCO2)C1` (stereo partly drawn) [Compound 319, 3-amino-N-((9S,12S)-5^4-methyl-8,11,14-trioxo-9-phenethyl-4-oxa-7,10-diaza-1(3,1)-piperidina-5(1,3)-benzenacyclotetradecaphane-12-yl)isoquinoline-8-carboxamide], the IC50 (in assay [1]; in assay [2]; with HT-29 cells) was less than 100 nM each time.
Regarding `Cc1ccc2cc1CNC(=O)[C@H](CCc1ccccc1)NC(=O)[C@@H](NC(=O)OCc1ccccc1)CC(=O)N(C)CCO2` [Compound 312, benzyl ((8S,11S)-1^4,5-dimethyl-6,9,12-trioxo-11-phenethyl-2-oxa-5,10,13-triaza-1(1,3)-benzenacyclotetradecaphane-8-yl)carbamate], the values for the IC50 (in assay [1]; in assay [2]; with HT-29 cells) were greater than 5000 nM, 100 to 500 nM and 100 to 500 nM, respectively.
For the compound `Cc1ccc2cc1CNC(=O)[C@H](CCc1ccccc1)NC(=O)[C@@H](NC(=O)c1cccnc1)CC(=O)N1CCCC(CCO2)C1` (stereo partly drawn) [Compound 41, N-((9S,12S)-5^4-methyl-8,11,14-trioxo-9-phenethyl-4-oxa-7,10-diaza-1(3,1)-piperidina-5(1,3)-benzenacyclotetradecaphane-12-yl)nicotinamide], the IC50 in the assay with HT-29 cells was less than 100 nM.
On the same count and under the same terms, the result for `Cc1ccc2cc1CNC(=O)C(CCc1cnccn1)NC(=O)[C@@H](NC(=O)[C@@H](C)c1ccccc1)CC(=O)N1CCCC(CCO2)C1` (stereo partly drawn) [Compound 107, (2S)—N-((12S)-5^4-methyl-8,11,14-trioxo-9-(2-(pyrazin-2-yl)ethyl)-4-oxa-7,10-diaza-1(3,1)-piperidina-5(1,3)-benzenacyclotetradecaphane-12-yl)-2-phenylpropanamide] reads less than 100 nM.
As to `CC(=O)N[C@H]1CC(=O)NCCOc2ccc(C)c(c2)CNC(=O)[C@H](CCc2ccccc2)NC1=O` [Compound 252, N-((8S,11S)-1^4-methyl-6,9,12-trioxo-11-phenethyl-2-oxa-5,10,13-triaza-1(1,3)-benzenacyclotetradecaphane-8-yl)acetamide], the IC50 in the assay with HT-29 cells is 100 to 500 nM.
As for `Cc1ccc2cc1CNC(=O)C(CCc1ccccc1)NC(=O)CCC(=O)N1CCCC(CCO2)C1` (centres unmarked) [Compound 495, 5^4-methyl-9-phenethyl-4-oxa-7,10-diaza-1(3,1)-piperidina-5(1,3)-benzenacyclotetradecaphane-8,11,14-trione], in the assay on HT-29 cells, the IC50 is 100 to 500 nM.
As to `CC(=O)N[C@H]1CC(=O)N2CCC(CC2)Oc2ccc(C)c(c2)CNC(=O)[C@H](CCc2ccccc2)NC1=O` [Compound 254, N-((7S,10S)-3^4-methyl-6,9,12-trioxo-7-phenethyl-2-oxa-5,8-diaza-1(4,1)-piperidina-3(1,3)-benzenacyclododecaphane-10-yl)acetamide], the IC50 with HT-29 cells was 100 to 500 nM.
